PubChem BioAssay (NCI)
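In this assay, cells in 96-well plates receive the compound at five concentrations for 48 hours. Endpoints are linearly interpolated between the surrounding concentrations. Abbreviation: GI50, concentration required for 50% inhibition of growth. TGI: concentration producing complete growth inhibition.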

Tests used:
Assay in all cases: DTP human tumour cell line panel, 48 h
HCC-2998 colon = test system: HCC-2998 colon
OVCAR-8 ovarian = test system: OVCAR-8 ovarian
SF-539 CNS = test system: SF-539 CNS
T-47D breast = test system: T-47D breast
UACC-257 melanoma = test system: UACC-257 melanoma
SF-268 CNS = test system: SF-268 CNS
MOLT-4 leukemia = test system: MOLT-4 leukemia
KM12 colon = test system: KM12 colon
HCT-116 colon = test system: HCT-116 colon
NCI-H522 lung = test system: NCI-H522 lung
LOX IMVI melanoma = test system: LOX IMVI melanoma
MALME-3M melanoma = test system: MALME-3M melanoma
CCRF-CEM leukemia = test system: CCRF-CEM leukemia
EKVX NSCLC = test system: EKVX NSCLC
DU-145 prostate = test system: DU-145 prostate
MCF7 breast = test system: MCF7 breast
SR leukemia = test system: SR leukemia
MDA-MB-468 breast = test system: MDA-MB-468 breast
SK-OV-3 ovarian = test system: SK-OV-3 ovarian
786-0 renal = test system: 786-0 renal
ACHN renal = test system: ACHN renal
RXF 393 renal = test system: RXF 393 renal
OVCAR-3 ovarian = test system: OVCAR-3 ovarian
HL-60(TB) leukemia = test system: HL-60(TB) leukemia
RPMI-8226 leukemia = test system: RPMI-8226 leukemia
COLO 205 colon = test system: COLO 205 colon
UACC-62 melanoma = test system: UACC-62 melanoma
HS 578T breast = test system: HS 578T breast
HOP-92 NSCLC = test system: HOP-92 NSCLC
K-562 leukemia = test system: K-562 leukemia
OVCAR-4 ovarian = test system: OVCAR-4 ovarian
A549 NSCLC = test system: A549 NSCLC
SK-MEL-28 melanoma = test system: SK-MEL-28 melanoma
CAKI-1 renal = test system: CAKI-1 renal
SK-MEL-5 melanoma = test system: SK-MEL-5 melanoma
BT-549 breast = test system: BT-549 breast
SN12C renal = test system: SN12C renal
SF-295 CNS = test system: SF-295 CNS
NCI-H23 lung = test system: NCI-H23 lung
M14 melanoma = test system: M14 melanoma
NCI-H460 lung = test system: NCI-H460 lung
MDA-MB-435 = test system: MDA-MB-435
SNB-19 CNS = test system: SNB-19 CNS
OVCAR-5 ovarian = test system: OVCAR-5 ovarian
NCI-H226 lung = test system: NCI-H226 lung
HT29 colon = test system: HT29 colon
HOP-62 NSCLC = test system: HOP-62 NSCLC
A498 renal = test system: A498 renal
IGROV1 ovarian = test system: IGROV1 ovarian
NCI/ADR-RES ovarian = test system: NCI/ADR-RES ovarian
TK-10 renal = test system: TK-10 renal
SW-620 colon = test system: SW-620 colon
HCT-15 colon = test system: HCT-15 colon
PC-3 prostate = test system: PC-3 prostate
U251 CNS = test system: U251 CNS

`N#CC1=C(c2ccco2)Nc2c(c(-c3ccccc3)nn2-c2ccccc2)C12C(=O)Nc1ccc(Cl)cc12` (stereo unspecified) was tested, and the GI50 (HCC-2998 colon) was 19.2 µM, the TGI (HCC-2998 colon) was 58.9 µM and the GI50 (OVCAR-8 ovarian) was 15.7 µM. It also gave a TGI (OVCAR-8 ovarian) of 30.7 µM, a GI50 (SF-539 CNS) of 17.9 µM and a TGI (SF-539 CNS) of 40.6 µM. For the same compound, the GI50 (T-47D breast) was 19.5 µM, the TGI (T-47D breast) was > 100 µM and the GI50 (UACC-257 melanoma) was 16.6 µM. It also gave a TGI (UACC-257 melanoma) of 41.4 µM, a GI50 (SF-268 CNS) of 17.8 µM and a TGI (SF-268 CNS) of 90.1 µM. It also gave a GI50 (MOLT-4 leukemia) of 6.05 µM, a TGI (MOLT-4 leukemia) of 91.2 µM and a GI50 (KM12 colon) of 49.5 µM. For the same compound, the TGI (KM12 colon) was > 100 µM, the GI50 (HCT-116 colon) was 13.1 µM and the TGI (HCT-116 colon) was 26 µM. It also gave a GI50 (NCI-H522 lung) of 14.5 µM, a TGI (NCI-H522 lung) of 38.8 µM and a GI50 (LOX IMVI melanoma) of 19.2 µM. It also gave a TGI (LOX IMVI melanoma) of 47.1 µM, a GI50 (MALME-3M melanoma) of 14.7 µM and a TGI (MALME-3M melanoma) of 29.8 µM. For the same compound, the GI50 (CCRF-CEM leukemia) was 49.7 µM, the TGI (CCRF-CEM leukemia) was > 100 µM and the GI50 (EKVX NSCLC) was 16.5 µM. For the same compound, the TGI (EKVX NSCLC) was 66 µM, the GI50 (DU-145 prostate) was 19.4 µM and the TGI (DU-145 prostate) was 43.9 µM. For the same compound, the GI50 (MCF7 breast) was 15.7 µM, the TGI (MCF7 breast) was 49.7 µM and the GI50 (SR leukemia) was 23.3 µM. For the same compound, the TGI (SR leukemia) was > 100 µM, the GI50 (MDA-MB-468 breast) was 19 µM and the TGI (MDA-MB-468 breast) was 64.7 µM. For the same compound, the GI50 (SK-OV-3 ovarian) was 15.8 µM, the TGI (SK-OV-3 ovarian) was 33.9 µM and the GI50 (786-0 renal) was 16.2 µM. It also gave a TGI (786-0 renal) of 56 µM, a GI50 (ACHN renal) of 18.1 µM and a TGI (ACHN renal) of 61 µM. The GI50 (RXF 393 renal) was 13.2 µM, the TGI (RXF 393 renal) was 29.9 µM and the GI50 (OVCAR-3 ovarian) was 20.4 µM. For the same compound, the TGI (OVCAR-3 ovarian) was 61 µM, the GI50 (HL-60(TB) leukemia) was 15 µM and the TGI (HL-60(TB) leukemia) was > 100 µM. For the same compound, the GI50 (RPMI-8226 leukemia) was 18.7 µM, the TGI (RPMI-8226 leukemia) was > 100 µM and the GI50 (COLO 205 colon) was 14.7 µM. It also gave a TGI (COLO 205 colon) of 29.7 µM, a GI50 (UACC-62 melanoma) of 11.4 µM and a TGI (UACC-62 melanoma) of 28.2 µM. For the same compound, the GI50 (HS 578T breast) was 12.6 µM, the TGI (HS 578T breast) was 40.9 µM and the GI50 (HOP-92 NSCLC) was 12.8 µM. The TGI (HOP-92 NSCLC) was 28.5 µM, the GI50 (K-562 leukemia) was 16.6 µM and the TGI (K-562 leukemia) was > 100 µM. The GI50 (OVCAR-4 ovarian) was 15.4 µM, the TGI (OVCAR-4 ovarian) was 33.3 µM and the GI50 (A549 NSCLC) was 11.6 µM. It also gave a TGI (A549 NSCLC) of 25.1 µM, a GI50 (SK-MEL-28 melanoma) of 15.5 µM and a TGI (SK-MEL-28 melanoma) of 33 µM. For the same compound, the GI50 (CAKI-1 renal) was 29.5 µM, the TGI (CAKI-1 renal) was > 100 µM and the GI50 (SK-MEL-5 melanoma) was 18 µM. It also gave a TGI (SK-MEL-5 melanoma) of 41.8 µM, a GI50 (BT-549 breast) of 12.2 µM and a TGI (BT-549 breast) of 28.2 µM. The GI50 (SN12C renal) was 17 µM, the TGI (SN12C renal) was 36.7 µM and the GI50 (SF-295 CNS) was 16.9 µM. It also gave a TGI (SF-295 CNS) of 56.3 µM, a GI50 (NCI-H23 lung) of 15.5 µM and a TGI (NCI-H23 lung) of 32.4 µM. The GI50 (M14 melanoma) was 15 µM, the TGI (M14 melanoma) was 32.7 µM and the GI50 (NCI-H460 lung) was 14.1 µM. The TGI (NCI-H460 lung) was 31.8 µM, the GI50 (MDA-MB-435) was 34.8 µM and the TGI (MDA-MB-435) was > 100 µM. For the same compound, the GI50 (SNB-19 CNS) was 17.4 µM, the TGI (SNB-19 CNS) was 46 µM and the GI50 (OVCAR-5 ovarian) was 23.8 µM. The TGI (OVCAR-5 ovarian) was > 100 µM, the GI50 (NCI-H226 lung) was 17.5 µM and the TGI (NCI-H226 lung) was 50.2 µM. It also gave a GI50 (HT29 colon) of 14.6 µM, a TGI (HT29 colon) of 30.2 µM and a GI50 (HOP-62 NSCLC) of 14.8 µM. For the same compound, the TGI (HOP-62 NSCLC) was 28.9 µM, the GI50 (A498 renal) was 14.5 µM and the TGI (A498 renal) was 30.9 µM. It also gave a GI50 (IGROV1 ovarian) of 16.3 µM, a TGI (IGROV1 ovarian) of 38.4 µM and a GI50 (NCI/ADR-RES ovarian) of 14.8 µM. For the same compound, the TGI (NCI/ADR-RES ovarian) was 30 µM, the GI50 (TK-10 renal) was 15 µM and the TGI (TK-10 renal) was 30.6 µM. For the same compound, the GI50 (SW-620 colon) was 30.3 µM, the TGI (SW-620 colon) was > 100 µM and the GI50 (HCT-15 colon) was 19.6 µM. The TGI (HCT-15 colon) was > 100 µM, the GI50 (PC-3 prostate) was 12 µM and the TGI (PC-3 prostate) was 28 µM. The GI50 (U251 CNS) was 13.3 µM and the TGI (U251 CNS) was 29.2 µM.

For `CC(=O)N[C@@H](Cc1ccc(OP(=O)(O)O)cc1)C(=O)N[C@H]1CCC(=O)N2CCC[C@@H](C(=O)NC3CCc4ccccc43)N2C1=O` (stereo partly specified), the GI50 (MDA-MB-468 breast) was > 25 µM and the TGI (MDA-MB-468 breast) was > 25 µM.

`CC[C@@H](C)/C=C(C)/C=C/C(=O)c1c(O)c(-c2ccc(O)cc2)cn(OC2CC(=O)CCC(C)OC(=O)CC2O)c1=O` (stereo partly specified) gave a GI50 (MDA-MB-468 breast) of 0.239 µM and a TGI (MDA-MB-468 breast) of 0.852 µM.

`Fc1ccc(Nc2nc3nonc3nc2Nc2ccc(I)cc2)cc1` gave a GI50 (MDA-MB-468 breast) of 0.251 µM and a TGI (MDA-MB-468 breast) of 0.79 µM.
